Measured values taken from patent publication US20040191843A1, “Cell-killing molecules and methods of use thereof” (Palo Alto Institute of Molecular Medicine, priority 2003, published 2004).

Tested on: U9-TR
Assay: DNA fragmentation in whole cells (release of 3H-labeled DNA fragments, 4 h)
Format: cell-based, human
Method: DNA fragmentation in whole cells or normal nuclei isolated from U937 or MCF-7 cells was assayed by release of (3H)thymidine-labeled DNA fragments as described in detail previously (Wright et al. (1994) J. Exp. Med. 180, 2113-2123). DNA fragmentation induced by rADF treatment of isolated nuclei for four h was analyzed by agarose electrophoresis as described in detail previously (Wright et al. (1994) supra). In four h assays using isolated nuclei, the buffer was supplemented with an ATP regenerating system (2 mM ATP, 10 mM phosphocreatine, and 50 μg/ml creatine kinase).
Another mechanism whereby cancer cells may resist apoptosis is through overexpression of heat shock (HS) proteins which have been found at high levels in most tumor cell biopsies (Jaattela, et al., 1999, Exp Cell Res 248:30-43). […] We have studied the mechanisms of apoptosis resistance using several variants derived from the U937 cell line. Variants generated by prolonged growth in the presence of TNF (U9-TR) or by nutritional depletion of intracellular NAD content (U9-NAD-) have been described in the literature previously (Wright, et al., 1992, Cancer Immunol Immunother 34:399-406; Wright, et al., 1996b, J. Exp. Med. 183: 463-477). Both of these variants were resistant to apoptosis induced by diverse agents, such as chemotherapeutic drugs, UV light, and TNF.

SMILES: COc1cc([C@@H]2c3cc4c(cc3[C@@H](O[C@@H]3O[C@@H]5CO[C@@H](C)O[C@H]5[C@H](O)[C@H]3O)[C@H]3COC(=O)[C@H]23)OCO4)cc(OC)c1O [Etoposide, etoposide]
- fold increase of IC50 values in resistant variants: > 41 fold
